One assay has as its target T1, MycN (Homo sapiens, UniProt P04198).
T1 construct: endogenous in cells; host or cells: SK-N-BE(2)
T1 sequence (P04198 1-464): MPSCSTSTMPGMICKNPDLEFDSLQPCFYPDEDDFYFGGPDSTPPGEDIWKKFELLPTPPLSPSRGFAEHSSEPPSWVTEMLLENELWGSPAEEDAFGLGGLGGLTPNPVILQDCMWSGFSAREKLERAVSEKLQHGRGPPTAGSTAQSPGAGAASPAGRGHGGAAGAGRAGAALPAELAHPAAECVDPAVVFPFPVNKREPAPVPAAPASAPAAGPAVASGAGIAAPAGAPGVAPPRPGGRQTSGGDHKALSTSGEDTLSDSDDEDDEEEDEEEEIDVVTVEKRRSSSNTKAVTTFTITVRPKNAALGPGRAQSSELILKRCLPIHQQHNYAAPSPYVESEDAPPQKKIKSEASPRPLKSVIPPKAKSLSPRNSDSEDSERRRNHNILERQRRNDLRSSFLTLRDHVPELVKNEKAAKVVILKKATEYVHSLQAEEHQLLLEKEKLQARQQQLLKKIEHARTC
Description: Degradation of MycN protein in SK-N-BE(2) cells (JESS/Western blot). It is filed as cell-based. The note with it: SKNBE2 cells, 24 h; for Dmax at 0.5 µM: read-out: % Degradation of MycN (SKNBE2) 24 h, 0.5 μM; for Dmax at 1 µM: read-out: % Degradation of MycN (SKNBE2) 24 h, 1 μM; for Dmax at 3 µM: read-out: % Degradation of MycN (SKNBE2) 24 h, 3 μM; for Dmax at 6 µM: read-out: % Degradation of MycN (SKNBE2) 24 h, 6 μM. Here is the method:
(§1) For L363 cells (suspension), 1E6 cells were plated into each well of a 6 well plate. For SK—N-BE(2) cells (adherent), 5E5 cells were plated into each well of a 6 well dish. […] All compounds were diluted to 10 mM in DMSO. Cells were treated with the compound for 24 hrs, then for both cell types, media containing cells were removed from wells into a 15 ml centrifuge tube, and remaining adherent SK—N-BE(2) cells were also scraped from the wells into the appropriate tubes. Tubes were centrifuged, cells were washed with PBS then re-centrifuged to pellet cells. A RIPA buffer cocktail was added to the cells on ice for 5 mins. Cell lysates were clarified by centrifugation and stored at −80 degrees until required. BCA assay was performed on each lysate to determine the protein concentration. For validation studies of antibodies, lysates and antibodies were used at a number of concentrations (Lysates: 2, 1, 0.2 mg/ml; Antibodies: 1 in 50, 1 in 200 dilution). Once an appropriate lysate concentration and antibody concentration was determined, samples were screened in the JESS technology (Protein Simple, San Jose, CA—https://www.proteinsimple.com/jess.html). Target protein antibodies (n-myc and c-myc) were detected in the chemiluminescence channel and loading controls (tubulin and GAPDH) were detected using a Near Infra Red (NIR) labeled secondary antibody. For SK—N-EB2 adherent cells, 5E5 cells in 1.9 mls media were plated into 6 well dishes and incubated for 24 hrs. […] Cells were scrapped off the plate, centrifuged, washed with PBS, centrifuged, then a RIPA buffer cocktail added to the cells (100 ul), centrifuged and stored at −80 for later analysis. For L363 suspension cells, 1E6 cells were plated into 24 well dishes (950 ul media) and incubated for 24 hrs. […] Cells were aspirated into tubes, centrifuged, washed with PBS, centrifuged, then a RIPA buffer cocktail added to the cells (100 ul), centrifuged and stored at −80 for later analysis. For Western blot, a BCA (total protein) assay was run on all samples, these were then run in batches of 5 compounds plus control (DMSO) on each Western blot run—n-myc and c-myc were run in separate experiments in the chemiluminescence channel. Both tubulin and GAPDH were run as loading controls in all lanes in the near infra red channel.
(In general: Immunoblotting shows a protein as a band on a membrane.)

The target of the next assay is T2, MycC (Homo sapiens, UniProt P01106).
T2 construct: endogenous in cells; host or cells: L363
T2 sequence (P01106 whole entry): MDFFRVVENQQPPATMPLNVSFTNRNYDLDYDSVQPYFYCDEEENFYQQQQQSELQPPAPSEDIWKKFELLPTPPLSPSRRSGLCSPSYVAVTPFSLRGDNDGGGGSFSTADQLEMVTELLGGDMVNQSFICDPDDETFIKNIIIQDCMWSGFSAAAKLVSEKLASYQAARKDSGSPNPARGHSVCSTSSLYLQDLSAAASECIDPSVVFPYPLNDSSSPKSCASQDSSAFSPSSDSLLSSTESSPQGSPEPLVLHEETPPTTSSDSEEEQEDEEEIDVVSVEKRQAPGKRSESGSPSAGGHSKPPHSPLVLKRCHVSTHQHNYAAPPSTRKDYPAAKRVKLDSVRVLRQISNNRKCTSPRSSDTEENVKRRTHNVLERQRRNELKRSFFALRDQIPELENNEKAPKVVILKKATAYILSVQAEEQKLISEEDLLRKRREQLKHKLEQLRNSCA
As to the kind of experiment: Degradation of MycC protein in L363 cells (JESS/Western blot). It is filed as cell-based. Conditions: L-363 cells, 24 h; for Dmax at 0.5 µM: read-out: % Degradation of MycC (L-363) 24 h, 0.5 μM; for Dmax at 1 µM: read-out: % Degradation of MycC (L-363) 24 h, 1 μM; for Dmax at 3 µM: read-out: % Degradation of MycC (L-363) 24 h, 3 μM; for Dmax at 6 µM: read-out: % Degradation of MycC (L-363) 24 h, 6 μM. Here is the method: as §1

Structures are written as SMILES.

Turning to `Cn1cc(C(=O)N2CC3(CC(Nc4nccc(Nc5cc(C6CCCC6)[nH]n5)n4)C3)C2)nn1` [Compound 39, (6-((4-((5-Cyclopentyl-1H-pyrazol-3-yl)amino)pyrimidin-2-yl)amino)-2-azaspiro[3.3]heptan-2-yl)(1-methyl-1H-1,2,3-triazol-4-yl)methanone], at MycN, the Dmax at 0.5 µM lay in the range of 20 to 49%, the Dmax at 1 µM is less than 20%, the Dmax at 3 µM is 80 to 100% and the Dmax at 6 µM lay within 80 to 100%. On MycC, the Dmax at 0.5 µM was in the range of 20 to 49%, the Dmax at 1 µM lay in the range of 20 to 49%, the Dmax at 3 µM is 20 to 49% and the Dmax at 6 µM lay within 80 to 100%.

As for `CN1CCC(CNc2nccc(Nc3cc(C4CCCC4)[nH]n3)n2)CC1` [Compound 1], on MycN, the Dmax at 0.5 µM fell in the range of 20 to 49%, the Dmax at 1 µM is less than 20%, the Dmax at 3 µM was in the range of 20 to 49% and the Dmax at 6 µM lay within 80 to 100%. Moreover, at MycC, the Dmax at 3 µM is less than 20% and the Dmax at 6 µM is less than 20%.

With `c1cc(Nc2cc(C3CCCC3)[nH]n2)nc(NC2CC3(CNC3)C2)n1` [Compound 30, N^4-(5-cyclopentyl-1H-pyrazol-3-yl)-N^2-(2-azaspiro[3.3]heptan-6-yl)pyrimidine-2,4-diamine], on MycN, the Dmax at 0.5 µM was less than 20%, the Dmax at 1 µM is less than 20% and the Dmax at 6 µM was in the range of 50 to 79%. Besides, at MycC, the Dmax at 0.5 µM was in the range of 80 to 100%, the Dmax at 1 µM lay within 80 to 100%, the Dmax at 3 µM is 80 to 100% and the Dmax at 6 µM lay in the range of 80 to 100%.

`F[C@@H]1CNCC[C@@H]1Nc1nccc(Nc2cc(C3CC3)[nH]n2)n1` [Compound 44, N^4-(5-Cyclopropyl-1H-pyrazol-3-yl)-N^2-[(3R,4S)-3-fluoro-4-piperidyl]pyrimidine-2,4-diamine]: at MycN, the Dmax at 0.5 µM was less than 20%, the Dmax at 1 µM is 20 to 49%, the Dmax at 3 µM was 20 to 49% and the Dmax at 6 µM lay within 50 to 79%. Moreover, at MycC, the Dmax at 0.5 µM is less than 20%, the Dmax at 1 µM was 20 to 49%, the Dmax at 3 µM was 20 to 49% and the Dmax at 6 µM was less than 20%.

As to `CN1CC2(CNc3nccc(Nc4cc(C5CC5)[nH]n4)n3)CC1C2` [Compound 4, N^4-(5-Cyclopropyl-1H-pyrazol-3-yl)-N^2-((2-methyl-2-azabicyclo[2.1.1]hexan-4-yl)methyl)pyrimidine-2,4-diamine], on MycN, the Dmax at 3 µM was less than 20% and the Dmax at 6 µM was 20 to 49%. Moreover, on MycC, the Dmax at 1 µM was less than 20%, the Dmax at 3 µM was 20 to 49% and the Dmax at 6 µM was less than 20%.

Regarding `c1cc(Nc2cc(C3CCCC3)[nH]n2)nc(NC2CCNCC2)n1` [Compound 32, N^4-(5-cyclopentyl-1H-pyrazol-3-yl)-N^2-(piperidin-4-yl)pyrimidine-2,4-diamine], on MycN, the Dmax at 1 µM was in the range of 50 to 79%, the Dmax at 3 µM was 80 to 100% and the Dmax at 6 µM was 80 to 100%. Also, on MycC, the Dmax at 0.5 µM is 50 to 79%, the Dmax at 1 µM lay within 50 to 79%, the Dmax at 3 µM is 80 to 100% and the Dmax at 6 µM fell in the range of 80 to 100%.

For `c1cc(Nc2cc(C3CC3)[nH]n2)nc(NC2CCOCC2)n1` [Compound 65, N4-(5-Cyclopropyl-1H-pyrazol-3-yl)-N2-tetrahydropyran-4-yl-pyrimidine-2,4-diamine], at MycN, the Dmax at 0.5 µM is 20 to 49%, the Dmax at 1 µM lay within 50 to 79%, the Dmax at 3 µM fell in the range of 80 to 100% and the Dmax at 6 µM fell in the range of 80 to 100%. Besides, on MycC, the Dmax at 0.5 µM fell in the range of 20 to 49%, the Dmax at 1 µM was in the range of 80 to 100%, the Dmax at 3 µM was in the range of 80 to 100% and the Dmax at 6 µM was 80 to 100%.

In the case of `c1cc(Nc2cc(C3CCCC3)[nH]n2)nc(NC2CCC3(CC2)CNC3)n1` [Compound 40, N^2-(2-Azaspiro[3.5]nonan-7-yl)-N^4-(5-cyclopentyl-1H-pyrazol-3-yl)pyrimidine-2,4-diamine], at MycN, the Dmax at 0.5 µM lay within 50 to 79%, the Dmax at 1 µM was in the range of 80 to 100%, the Dmax at 3 µM was 80 to 100% and the Dmax at 6 µM was 80 to 100%. Also, on MycC, the Dmax at 1 µM is less than 20%, the Dmax at 3 µM was 80 to 100% and the Dmax at 6 µM fell in the range of 80 to 100%.

As for `Cn1cc(C(=O)N2CCC(Nc3nccc(Nc4cc(C5CC5)[nH]n4)n3)CC2)nn1` [Compound 37, (4-((4-((5-Cyclopropyl-1H-pyrazol-3-yl)amino)pyrimidin-2-yl)amino)piperidin-1-yl)(1-methyl-1H-1,2,3-triazol-4-yl)methanone], at MycN, the Dmax at 1 µM is less than 20%, the Dmax at 3 µM is 20 to 49% and the Dmax at 6 µM lay in the range of 20 to 49%. In addition, at MycC, the Dmax at 3 µM lay within 20 to 49% and the Dmax at 6 µM was less than 20%.

With `CN1CCC(C(=O)Nc2nccc(Nc3cc(C4CC4)[nH]n3)n2)CC1` [Compound 35, N-(4-((5-cyclopropyl-1H-pyrazol-3-yl)amino)pyrimidin-2-yl)-1-methylpiperidine-4-carboxamide], at MycN, the Dmax at 0.5 µM is 20 to 49%, the Dmax at 1 µM is less than 20%, the Dmax at 3 µM lay in the range of 20 to 49% and the Dmax at 6 µM was 20 to 49%. At MycC, the Dmax at 3 µM was less than 20% and the Dmax at 6 µM is less than 20%.

For the origin of these results see patent US20250177393A1, “MODULATORS OF MYC FAMILY PROTO-ONCOGENE PROTEIN” (Nalo Therapeutics, priority 2022, published 2025).
